Experimental data as given in US20250361230A1, “LATS Inhibitors and Uses Thereof” (The USA, as Represented by the Secretary, Dept. of Heath …, priority 2022, published 2025).
pIC50: −log10 of the molar value.

Tests used:
Type in all cases: biochemical
[1] = target: T1, LATS1 (Homo sapiens, UniProt O95835); assay: RBC HotSpot kinase assay (33P-ATP, P81 filter-binding), LATS1; settings: Table 28, biochemical kinase assay; read-out: LATS1 IC50
T1 sequence (O95835 1-1130): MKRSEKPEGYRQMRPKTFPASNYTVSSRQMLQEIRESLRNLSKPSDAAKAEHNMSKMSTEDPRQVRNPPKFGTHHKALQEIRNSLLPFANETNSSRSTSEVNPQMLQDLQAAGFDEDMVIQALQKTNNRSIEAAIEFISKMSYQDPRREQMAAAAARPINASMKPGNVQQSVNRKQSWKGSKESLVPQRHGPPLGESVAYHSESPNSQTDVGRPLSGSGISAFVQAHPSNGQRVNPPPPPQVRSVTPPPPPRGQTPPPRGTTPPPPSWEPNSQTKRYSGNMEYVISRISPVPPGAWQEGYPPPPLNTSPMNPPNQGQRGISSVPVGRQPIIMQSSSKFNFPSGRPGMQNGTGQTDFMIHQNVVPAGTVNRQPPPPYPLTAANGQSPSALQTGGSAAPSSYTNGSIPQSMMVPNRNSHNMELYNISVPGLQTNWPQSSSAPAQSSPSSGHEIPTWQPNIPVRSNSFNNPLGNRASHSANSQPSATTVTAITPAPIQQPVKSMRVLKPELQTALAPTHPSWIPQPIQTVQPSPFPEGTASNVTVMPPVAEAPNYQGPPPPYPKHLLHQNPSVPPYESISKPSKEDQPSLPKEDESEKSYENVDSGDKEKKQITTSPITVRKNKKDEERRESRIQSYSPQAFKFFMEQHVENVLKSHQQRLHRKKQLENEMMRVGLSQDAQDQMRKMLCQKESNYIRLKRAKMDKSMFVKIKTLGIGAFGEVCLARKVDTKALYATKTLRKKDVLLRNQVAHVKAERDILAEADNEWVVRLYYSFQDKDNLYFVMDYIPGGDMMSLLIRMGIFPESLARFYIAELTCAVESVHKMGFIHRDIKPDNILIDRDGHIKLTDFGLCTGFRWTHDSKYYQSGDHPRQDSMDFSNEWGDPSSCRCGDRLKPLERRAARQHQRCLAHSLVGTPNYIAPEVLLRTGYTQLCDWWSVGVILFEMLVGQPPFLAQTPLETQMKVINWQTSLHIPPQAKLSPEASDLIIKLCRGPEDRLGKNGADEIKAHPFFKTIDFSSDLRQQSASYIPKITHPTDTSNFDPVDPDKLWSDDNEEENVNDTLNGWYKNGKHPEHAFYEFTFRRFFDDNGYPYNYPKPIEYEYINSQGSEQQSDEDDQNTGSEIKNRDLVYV
How it was run: (§1)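 Kinase in Hepes pH 7.5 buffer with Mg2+, EGTA, Brij35, BSA, vanadate, DTT and 1% DMSO, plus required cofactors and substrate, was preincubated 20 min at room temperature with compound. Reaction was started with 33P-ATP and run 2 h, then detected by P81 filter binding. IC50 (nM) came from 10-point singlet curves.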

[2] = target: AKT (Homo sapiens, UniProt P31749); assay: RBC HotSpot kinase assay (33P-ATP, P81 filter-binding), AKT; settings: Table 28, biochemical kinase assay; read-out: AKT IC50
AKT, sequence (P31749 whole entry): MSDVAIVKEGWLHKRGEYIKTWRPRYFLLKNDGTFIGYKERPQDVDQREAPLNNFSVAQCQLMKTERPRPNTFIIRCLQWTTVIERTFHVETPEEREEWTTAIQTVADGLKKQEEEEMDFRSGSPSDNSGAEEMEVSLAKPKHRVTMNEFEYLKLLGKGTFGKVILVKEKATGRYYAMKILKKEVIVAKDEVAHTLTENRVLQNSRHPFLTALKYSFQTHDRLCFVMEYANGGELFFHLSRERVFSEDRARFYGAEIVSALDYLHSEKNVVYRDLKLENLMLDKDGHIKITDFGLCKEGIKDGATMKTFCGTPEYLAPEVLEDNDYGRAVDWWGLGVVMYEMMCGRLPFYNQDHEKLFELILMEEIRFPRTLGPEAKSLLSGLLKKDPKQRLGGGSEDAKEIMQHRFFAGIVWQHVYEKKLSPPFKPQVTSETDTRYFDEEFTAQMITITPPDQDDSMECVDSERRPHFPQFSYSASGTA
How it was run: as §1

[3] = target: T2, LATS2 (Homo sapiens, UniProt Q9NRM7); assay: RBC HotSpot kinase assay (33P-ATP, P81 filter-binding), LATS2; settings: Table 28, biochemical kinase assay; read-out: LATS2 IC50
T2 sequence (Q9NRM7 1-1088): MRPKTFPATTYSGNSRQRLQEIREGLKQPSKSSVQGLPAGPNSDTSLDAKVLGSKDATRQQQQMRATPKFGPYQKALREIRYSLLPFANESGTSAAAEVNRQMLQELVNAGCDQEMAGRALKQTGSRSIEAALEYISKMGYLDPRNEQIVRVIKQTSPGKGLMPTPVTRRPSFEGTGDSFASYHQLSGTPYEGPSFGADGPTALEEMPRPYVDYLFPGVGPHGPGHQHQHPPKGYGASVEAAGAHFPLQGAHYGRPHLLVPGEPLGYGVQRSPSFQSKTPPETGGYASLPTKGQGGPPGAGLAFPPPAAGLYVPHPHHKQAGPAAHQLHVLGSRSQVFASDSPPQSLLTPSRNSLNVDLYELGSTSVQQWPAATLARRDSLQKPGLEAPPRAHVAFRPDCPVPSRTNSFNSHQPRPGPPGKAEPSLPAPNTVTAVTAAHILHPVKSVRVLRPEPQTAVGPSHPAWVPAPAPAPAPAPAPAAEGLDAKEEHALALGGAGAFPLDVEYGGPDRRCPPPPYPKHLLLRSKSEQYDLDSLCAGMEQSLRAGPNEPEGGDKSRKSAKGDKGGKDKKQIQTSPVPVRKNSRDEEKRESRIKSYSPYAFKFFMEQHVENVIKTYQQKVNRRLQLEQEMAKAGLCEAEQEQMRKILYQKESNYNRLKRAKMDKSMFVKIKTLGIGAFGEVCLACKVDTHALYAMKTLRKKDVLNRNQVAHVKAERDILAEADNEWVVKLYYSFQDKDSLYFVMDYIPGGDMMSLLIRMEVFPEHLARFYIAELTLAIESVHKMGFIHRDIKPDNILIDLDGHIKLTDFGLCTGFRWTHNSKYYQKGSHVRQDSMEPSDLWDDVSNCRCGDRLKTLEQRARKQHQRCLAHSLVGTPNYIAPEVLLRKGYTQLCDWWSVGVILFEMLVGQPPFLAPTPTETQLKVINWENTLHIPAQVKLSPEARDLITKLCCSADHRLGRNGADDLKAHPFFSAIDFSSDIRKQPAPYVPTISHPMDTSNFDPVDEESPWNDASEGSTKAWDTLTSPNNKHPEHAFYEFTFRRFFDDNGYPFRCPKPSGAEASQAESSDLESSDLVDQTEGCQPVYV
How it was run: as §1

Row | SMILES | pIC50 [1] | pIC50 [2] | pIC50 [3]
1 | CC(C)c1cc(-c2ccnc3[nH]ccc23)ccc1CN [Compound 233, (2-isopropyl-4-(1H-pyrrolo[2,3-b]pyridin-4-yl)phenyl) methanamine] | 8.25 | 6.55 | 7.45
2 | NCc1ccc(-c2ccnc3[nH]cc(Cl)c23)cc1-c1ccccc1 [Compound 234, (5-(3-chloro-1H-pyrrolo[2,3-b]pyridin-4-yl)-[1,1′-biphenyl]-2-yl)methanamine] | 8.19 | 7.16 | 7.62
3 | CCC(CC)Nc1cc(-c2ccnc3[nH]ccc23)ccc1CN [Compound 235, 2-(aminomethyl)-N-(pentan-3-yl)-5-(1H-pyrrolo[2,3-b]pyridin-4-yl)aniline] | 6.39 | 6.10 | 6.43
4 | CCN(CC)c1cc(-c2ccnc3[nH]ccc23)ccc1CNC(C)=O [Compound 236, N-(2-(diethylamino)-4-(1H-pyrrolo[2,3-b]pyridin-4-yl)benzyl)acetamide] | 6.11 | 5.44 | 6.05
5 | CCN(CC)c1cc(-c2ccnc3[nH]ccc23)ccc1CN [Compound 237, 2-(aminomethyl)-N,N-diethyl-5-(1H-pyrrolo[2,3-b]pyridin-4-yl)aniline] | 7.92 | 7.00 | 7.64
6 | COc1ccc(-c2c[nH]c3nccc(-c4ccc(CN)cc4)c23)cc1 [Compound 239, (4-(3-(4-methoxyphenyl)-1H-pyrrolo[2,3-b]pyridin-4-yl)phenyl) methanamine] | 7.17 | 5.88 | 7.59
7 | C=C(C)c1cc(-c2ccnc3[nH]ccc23)ccc1CN [Compound 240, (2-(prop-1-en-2-yl)-4-(1H-pyrrolo[2,3-b]pyridin-4-yl)phenyl) methanamine] | 8.37 | 6.75 | 7.47
8 | C=C(C)c1c[nH]c2nccc(-c3ccc(CN)cc3)c12 [Compound 241, (4-(3-(prop-1-en-2-yl)-1H-pyrrolo[2,3-b]pyridin-4-yl)phenyl) methanamine] | 7.72 | 6.09 | 8.22
9 | COc1ccccc1-c1c[nH]c2nccc(-c3ccc(CN)cc3)c12 [Compound 242, (4-(3-(2-methoxyphenyl)-1H-pyrrolo[2,3-b]pyridin-4-yl)phenyl) methanamine] | 7.96 | 5.88 | 8.00
10 | NCc1ccc(-c2ccnc3[nH]cc(-c4ccc(F)cc4)c23)cc1 [Compound 243, (4-(3-(4-fluorophenyl)-1H-pyrrolo[2,3-b]pyridin-4-yl)phenyl) methanamine] | 7.14 | 5.63 | 7.62
11 | CC(C)(O)C#Cc1cc(-c2ccnc3[nH]ccc23)ccc1CN [Compound 244, 4-(2-(aminomethyl)-5-(1H-pyrrolo[2,3-b]pyridin-4-yl)phenyl)-2-methylbut-3-yn-2-ol] | 7.70 | 5.90 | 7.55
12 | NCc1ccc(-c2ccnc3[nH]ccc23)cc1-c1ccccc1 [Compound 246, (5-(1H-pyrrolo[2,3-b]pyridin-4-yl)-[1,1′-biphenyl]-2-yl)methanamine] | 7.82 | 6.42 | 7.70
13 | NCc1ccc(-c2ccnc3[nH]cc(-c4cccc(F)c4)c23)cc1 [Compound 247, (4-(3-(3-fluorophenyl)-1H-pyrrolo[2,3-b]pyridin-4-yl)phenyl) methanamine] | 7.68 | 5.85 | 7.96
14 | NCc1ccc(-c2ccnc3[nH]cc(-c4ccccc4F)c23)cc1 [Compound 248, (4-(3-(2-fluorophenyl)-1H-pyrrolo[2,3-b]pyridin-4-yl)phenyl) methanamine] | 7.30 | 5.55 | 8.00
15 | NCc1ccc(-c2ccnc3[nH]cc(Cl)c23)cc1Cl [Compound 249, (2-chloro-4-(3-chloro-1H-pyrrolo[2,3-b]pyridin-4-yl)phenyl) methanamine] | 8.08 | 6.66 | 8.10

Other lines, results leading:

Row | pIC50 [1] | pIC50 [2] | pIC50 [3] | SMILES
16 | 6.05 | < 5.00 | 6.41 | Cc1cc2c(-c3ccc(CN)cc3)ccnc2[nH]1 [Compound 251, (4-(2-methyl-1H-pyrrolo[2,3-b]pyridin-4-yl)phenyl) methanamine]
17 | 8.09 | 5.50 | 7.92 | Cc1cc(-c2ccnc3[nH]ccc23)cnc1CN [Compound 252, (3-methyl-5-(1H-pyrrolo[2,3-b]pyridin-4-yl)pyridin-2-yl)methanamine]
18 | 5.05 | < 5.00 | 5.37 | Cc1cc(-c2ccc(CN)cc2)c2cc[nH]c2n1 [Compound 256, (4-(6-methyl-1H-pyrrolo[2,3-b]pyridin-4-yl)phenyl) methanamine]
19 | 7.89 | 6.20 | 7.92 | Cc1c[nH]c2nccc(-c3ccc(CN)cc3)c12 [Compound 257, (4-(3-methyl-1H-pyrrolo[2,3-b]pyridin-4-yl)phenyl) methanamine]
20 | 6.64 | < 5.00 | 7.19 | O=C1NCc2cc(-c3ccnc4[nH]ccc34)ccc21 [Compound 258, 5-(1H-pyrrolo[2,3-b]pyridin-4-yl)isoindolin-1-one]
21 | 6.96 | < 5.00 | 6.60 | O=C1NCc2ccc(-c3ccnc4[nH]ccc34)cc21 [Compound 259, 6-(1H-pyrrolo[2,3-b]pyridin-4-yl)isoindolin-1-one]
22 | 7.06 | 5.18 | 7.28 | O=C1NCCc2cc(-c3ccnc4[nH]ccc34)ccc21 [Compound 260, 6-(1H-pyrrolo[2,3-b]pyridin-4-yl)-3,4-dihydroisoquinol in-1(2H)-one]
23 | 7.47 | 5.05 | 8.00 | NCc1ccc(-c2cc(-c3ccncc3)nc3[nH]ccc23)cc1 [Compound 261, (4-(6-(pyridin-4-yl)-1H-pyrrolo[2,3-b]pyridin-4-yl)phenyl) methanamine]
24 | < 5.00 | < 5.00 | 5.35 | NCc1ccc(-c2cc(Cl)nc3[nH]ccc23)cc1 [Compound 262, (4-(6-chloro-1H-pyrrolo[2,3-b]pyridin-4-yl)phenyl) methanamine]
25 | 7.47 | 5.92 | 7.14 | NCc1ccc(-c2ccnc3[nH]ccc23)c(F)c1 [Compound 263, (3-fluoro-4-(1H-pyrrolo[2,3-b]pyridin-4-yl)phenyl) methanamine]
